These results are taken from patent publication US6096293A, “Antiplaque oral composition and method” (priority 1999, dated 2000).

For experiment [1], the system named is A. viscosus. Particulars: Evans 1977; cited from earlier work.
In experiment [2] the test system is S. mutans. Particulars: Evans 1977; cited from earlier work.
The test system of another experiment is A. naeslundii. Particulars: Evans 1977; cited from earlier work.
The subject of experiment [3] is S. sanguis. The following applies: Evans 1977; cited from earlier work.
In experiment [4] the test system is B. typhosus and Staph. aureus. Particulars: v. B. typhosus and Staph. aureus; Suter 1941; cited from earlier work.
In experiment [5] the test system is A. viscosus, A. naeslundii, S. mutans and S. sanguis. The following applies: Evans 1977; cited from earlier work.
Experiment [6] relates to bacteria. The following applies: background statement; cited from earlier work.
Experiment [7] relates to A. viscosus. The experiment in a line: Minimum Inhibitory Concentration (MIC), neat AA solutions in ethanol. Format: cell-based. The following applies: for MIC: neat solution in 98.5% ethanol. The source says:
(§1) The smaller the MIC, the greater the antibacterial activity of the AA being tested. This MIC test is also described in U.S. Pat. No. 5,275,805 at column 11, lines 54-68, which description is herewith incorporated herein.

Experiment [8] relates to S. mutans. The description is as above. Format: cell-based. Particulars: for MIC: neat solution in 98.5% ethanol.
Excerpt: as §1

Experiment [9] concerns S. sanguis. The description is as above. Format: cell-based. Particulars: for MIC: neat solution in 98.5% ethanol.
Excerpt: as §1

Experiment [10] concerns bacteria. Kind of experiment: Antimicrobial activity in general (comparison with thymol / triclosan, effect of substitution). Type of experiment: cell-based.

In the case of `O=C(C(=O)c1cc(Br)ccc1O)c1cc(Br)ccc1O` [Dibromsalicil], the “effect on growth and plaque formation” value in the experiment with A. viscosus [1] was “effective against A. viscosus”.

For `O=C(Nc1ccc(Br)cc1)c1cc(Br)cc(Br)c1O` [3,5,4'-tribromo-salicylanilide], the “effect on growth and plaque formation” value with S. mutans [2] is “effective against growth and plaque formation”; in the experiment with A. naeslundii, “effective against growth and plaque formation”; in the experiment with A. viscosus [1] it was “effective against growth and plaque formation”; in the experiment on S. sanguis [3], “effective against growth and plaque formation”.

For the compound `CCC(C)c1ccccc1O` (centres unmarked) [o-sec-butyl phenol], the phenol coefficient in experiment [4] was 28.

Turning to tert.butylphenol, in experiment [4], the phenol coefficient result is given as “about 20”.

In the case of `CCC(C)c1ccc(O)cc1` (centres unmarked) [p-sec-butyl phenol], in experiment [4], the phenol coefficient is listed as 28.

Take phenylphenol: the “inhibition of in vitro growth or plaque formation” value (shortened to “inhibition”) in [5] is “did not inhibit in vitro growth or plaque formation”.

Turning to `Cc1ccc(C(C)C)c(O)c1` [Thymol, 2-isopropyl-5-methylphenol], the “inhibition” value in experiment [5] is recorded as “did not inhibit in vitro growth or plaque formation”. In addition, the “antimicrobial activity relative to triclosan (background)” value in the experiment with bacteria [6] is recorded as “only a small fraction of the activity of triclosan”. For the same compound, the results for the MIC with A. viscosus [7], in the experiment on S. mutans [8] and in the experiment on S. sanguis [9] were 15.60 ppm, 31.25 ppm and 15.60 ppm, respectively.

Take `Oc1cc(Cl)ccc1Oc1ccc(Cl)cc1Cl` [Triclosan]: the figures for the MIC against A. viscosus [7], in the experiment with S. mutans [8] and in the experiment on S. sanguis [9] were 0.50 ppm, 1.95 ppm and 0.98 ppm, respectively. The “activity compared to thymol” value with bacteria [10] (AA's of the Tables, "10 to 100 or more times") is reported as roughly 100 times.

On to `O=S(=O)([O-])c1ccc(O)cc1.O=S(=O)([O-])c1ccc(O)cc1.[Zn+2]` [zinc phenolsulfonate], for which, in experiment [5], the “inhibition” value is listed as “did not inhibit in vitro growth or plaque formation”.

For the compound `CC(C)(C)c1ccc(O)c(C(C)(C)C)c1` [2,4-di-t-butylphenol], the entries for the “activity relative to triclosan” value with A. viscosus [7] (MIC test of Example 5), in the experiment with S. mutans [8] (MIC test of Example 5) and in the experiment on S. sanguis [9] (MIC test of Example 5) were “somewhat less active than triclosan”, “significantly superior to triclosan” and “somewhat less active than triclosan”, respectively. Besides, the figures for the MIC with A. viscosus [7], in the experiment on S. mutans [8] and against S. sanguis [9] were 1.95 ppm, 0.98 ppm and 1.95 ppm, respectively. In addition, the “activity relative to thymol” value with bacteria [10] (MIC test of Example 5, A. viscosus, S. sanguis, S. mutans) is “many times superior to thymol”.
